Experimental data as given in patent publication US20100063085A1, “METHOD OF TREATING LEARNING IMPAIRMENT IN DOWN'S SYNDROME SUBJECTS” (University Court of The University of Dundee, priority 2008, published 2010).
Where two headings read alike, the source gives them in different places.

Legend:
Type in all cases: biochemical
DYRK3 = DYRK3 (Homo sapiens, UniProt O43781); test: DYRK3 33P kinase assay (analogous to DYRK1a); conditions: ATP at 50 μM; half log dilutions starting at 100 μM
Procedure: (§1) DYRK1A (5-20 mU of diluted in 50 mM Tris pH 7.5, 0.1 mM EGTA) was assayed against Woodtide ([…]) in a final volume of 25.5 μl containing 50 mM Tris pH 7.5, 0.1 mM EGTA, 350 uM substrate peptide, 10 mM magnesium acetate and 0.5 μl inhibitor and incubated at room temperature for 5 mins, followed by the addition of 0.05 mM [33P-gamma-ATP] (50-1000 cpm/pmole) and incubated for 30 mins at room temperature. Assays were stopped by addition of 5 μl of 0.5 M (3%) orthophosphoric acid then harvested onto P81 Unifilter plates with a wash buffer of 50 mM orthophosphoric acid. Filterplates were then air dried overnight. 10 μl of Microscint O was added per well prior to counting for radioactivity.

CHK1 = molecular target: T1, CHK1 (Homo sapiens, UniProt O14757); test: CHK1 33P kinase assay; conditions: read-out: CHK1 activity as percentage of control without inhibitor
T1 sequence (O14757 1-476): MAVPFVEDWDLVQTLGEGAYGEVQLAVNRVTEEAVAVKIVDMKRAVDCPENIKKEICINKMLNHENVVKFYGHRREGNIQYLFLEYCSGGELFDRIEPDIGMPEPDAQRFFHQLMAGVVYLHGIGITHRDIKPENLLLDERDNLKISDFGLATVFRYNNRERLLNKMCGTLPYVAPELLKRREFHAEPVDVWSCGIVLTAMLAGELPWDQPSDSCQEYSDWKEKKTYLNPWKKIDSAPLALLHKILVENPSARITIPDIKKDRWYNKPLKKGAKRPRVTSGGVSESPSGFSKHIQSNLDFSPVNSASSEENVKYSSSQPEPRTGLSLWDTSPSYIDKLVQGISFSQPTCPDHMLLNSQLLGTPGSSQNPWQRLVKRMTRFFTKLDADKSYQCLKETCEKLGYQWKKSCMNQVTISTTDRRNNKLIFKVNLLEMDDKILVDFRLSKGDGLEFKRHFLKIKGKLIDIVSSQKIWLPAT
Procedure: (§2) All assays (25.5 μl) were carried out at room temperature (21° C.) and were linear with respect to time and enzyme concentrations under the conditions used. Assays were performed for 30 minutes except assays for LCK and PKB which were performed for 15 minutes using Multidrop Micro reagent dispensers (Thermo Electron Corporation, Waltham, Mass. 02454, USA) in a 96-well format. The concentration of […] [γ-^33P] ATP (800 cpm/pmol) in the assays was one of three concentrations (5, 20 or 50 μM) in order to be at or below Km for ATP for the enzyme. Assays were initiated with MgATP and stopped by addition of 5 μl of 0.5M orthophosphoric acid. Assays were then harvested onto P81 filterplates using a unifilter harvester (PerkinElmer, Boston, Mass. 02118, USA), with a wash buffer of 50 mM orthophosphoric acid. Filterplates were then air dried overnight. 10 μl of Microscint O was added per well prior to counting for radioactivity.
(§3) MKK1, JNK/SAPK1c, SAPK2a/p38, SAPK2b/p38β2, SAPK3/p38γ, SAPK4/p38δ, MAPK2/ERK2, MAPKAP-K1β, MAPKAP-K2, MSK1, PRAK, PKA, PKCα, PDK1, SGK, p70S6K, GSK3β, ROCK-II, PRK2, AMPK, CHK1, CHK2, CK2, PHK, LCK, were assayed according to Davies et al., (Davies, S. P., Reddy, H., Caivano, M. and Cohen, P. Biochem. J. 351, 95-105, 2000.
(§4) CSK and CDK2/cyclinA, were assayed according to Bain et al. (Bain J, McLauchlan H, Elliott M, Cohen P. Biochem J. 371, 199-204, 2003., except that ATP concentrations were either 5, 20 or 50 micromolar so that they were at or below the Km for ATP. The ATP concentrations used were as follows, 5 μM for assays of MKK1, SAPK3, SAPK4, GSK3β, PRK2 CK2 20 μm for assays of JNK, SAPK2β, MAPKAP-K2, MSK1, PRAK, PKA, […], PDK1, SGK, p70S6K, ROCK-II, CHK1, CHK2, CSK, CDK2, and 50 μM for assays of SAPK2a, MAPK2/ERK2, AMPK, LCK, PHK and MAPKAP-K1β.

DYRK2 = DYRK2 (Homo sapiens, UniProt Q92630); test: DYRK2 33P kinase assay (analogous to DYRK1a); conditions: ATP at 50 μM; half log dilutions starting at 100 μM
Chain of DYRK2 (Q92630 whole entry, species assumed): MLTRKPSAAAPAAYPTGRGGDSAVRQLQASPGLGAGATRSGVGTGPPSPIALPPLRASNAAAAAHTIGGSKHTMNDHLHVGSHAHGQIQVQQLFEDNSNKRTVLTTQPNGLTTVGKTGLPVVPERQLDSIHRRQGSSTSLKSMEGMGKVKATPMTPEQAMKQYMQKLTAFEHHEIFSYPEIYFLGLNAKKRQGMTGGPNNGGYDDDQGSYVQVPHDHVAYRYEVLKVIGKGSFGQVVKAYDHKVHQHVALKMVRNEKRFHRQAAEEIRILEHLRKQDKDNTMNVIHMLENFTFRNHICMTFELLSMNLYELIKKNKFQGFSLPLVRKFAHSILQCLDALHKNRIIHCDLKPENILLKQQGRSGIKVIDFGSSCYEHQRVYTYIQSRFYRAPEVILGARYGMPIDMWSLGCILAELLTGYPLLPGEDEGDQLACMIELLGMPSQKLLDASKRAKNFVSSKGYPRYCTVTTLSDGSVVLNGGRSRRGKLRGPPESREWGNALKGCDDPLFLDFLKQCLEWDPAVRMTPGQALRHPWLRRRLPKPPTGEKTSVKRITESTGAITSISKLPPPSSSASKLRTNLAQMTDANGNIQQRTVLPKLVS
Procedure: as §1
DYR2 and DYRK3 were assayed in an analogous manner to that described above for DYRK1a.

PRAK = molecular target: T2, PRAK (Homo sapiens, UniProt Q8IW41); test: PRAK 33P kinase assay; conditions: read-out: PRAK activity as percentage of control without inhibitor; for remaining activity at 1 µM: inhibitor 1 μM; for remaining activity at 10 µM: inhibitor 10 μM
T2 sequence (Q8IW41 1-473): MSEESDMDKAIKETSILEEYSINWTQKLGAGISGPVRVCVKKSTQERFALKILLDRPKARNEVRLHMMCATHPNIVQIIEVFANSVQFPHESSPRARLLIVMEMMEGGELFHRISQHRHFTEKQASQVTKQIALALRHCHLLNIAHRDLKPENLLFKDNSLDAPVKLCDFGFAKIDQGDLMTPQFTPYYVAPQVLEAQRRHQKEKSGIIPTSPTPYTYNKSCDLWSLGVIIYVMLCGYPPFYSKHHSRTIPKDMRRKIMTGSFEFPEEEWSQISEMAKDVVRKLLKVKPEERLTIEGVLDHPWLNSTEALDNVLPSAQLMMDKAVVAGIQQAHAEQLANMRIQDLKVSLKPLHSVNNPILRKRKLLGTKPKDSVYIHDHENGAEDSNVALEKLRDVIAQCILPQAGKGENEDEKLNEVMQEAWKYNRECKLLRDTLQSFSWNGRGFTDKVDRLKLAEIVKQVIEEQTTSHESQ
Procedure: as §2, §3, §4

Chain of DYRK3 (O43781 whole entry, species assumed): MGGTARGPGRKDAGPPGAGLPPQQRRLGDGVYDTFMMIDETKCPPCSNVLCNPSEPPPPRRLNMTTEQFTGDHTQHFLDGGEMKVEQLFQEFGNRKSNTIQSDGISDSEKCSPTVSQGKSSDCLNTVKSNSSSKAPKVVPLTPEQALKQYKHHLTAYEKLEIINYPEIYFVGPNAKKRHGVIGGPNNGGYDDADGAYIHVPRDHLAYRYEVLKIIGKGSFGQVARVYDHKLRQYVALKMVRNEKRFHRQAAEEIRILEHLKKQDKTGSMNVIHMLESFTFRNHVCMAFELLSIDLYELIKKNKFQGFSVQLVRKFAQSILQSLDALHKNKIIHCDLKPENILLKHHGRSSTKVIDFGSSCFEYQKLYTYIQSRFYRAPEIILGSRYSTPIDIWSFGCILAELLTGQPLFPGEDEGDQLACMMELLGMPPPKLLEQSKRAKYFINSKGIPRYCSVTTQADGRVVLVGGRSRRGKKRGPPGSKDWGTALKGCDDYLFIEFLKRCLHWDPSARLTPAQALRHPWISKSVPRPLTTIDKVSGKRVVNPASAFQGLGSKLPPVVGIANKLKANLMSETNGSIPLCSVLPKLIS

SMILES | IC50 (DYRK3) | remaining activity at 1 µM (CHK1) | remaining activity at 10 µM (CHK1) | IC50 (DYRK2) | remaining activity at 1 µM (PRAK) | remaining activity at 10 µM (PRAK) | remaining activity at 1 µM (CHK1; inhibitor 1 μM) | remaining activity at 10 µM (CHK1; inhibitor 10 μM)
COc1ccc2c(c1)[nH]c1c(C)nccc12 [Harmine] | 800 nM | 86% | 86% | 900 nM | 81% | 75% |  | 
COc1ccc2c3c([nH]c2c1)C(C)=NCC3 [Harmaline] |  | 78% | 67% |  | 88% | 93% |  | 
CC1=NCCc2c1[nH]c1cc(O)ccc21 [Harmalol] |  |  |  |  | 84% | 78% | 93% | 81%
